Assay results taken from patent US12433295B2, “Small-scale robots for biofilm eradication” (THE TRUSTEES OF THE UNIVERSITY OF PENNSYLVANIA, priority 2018, dated 2025).

Test system: biofilm extracellular matrix
Experiment: dose dependent extracellular matrix degradation of the enzymes mutanase and dextranase (FIG. 4)
Type: cell-based
Settings: combination of mutanase and dextranase
Text: FIG. 4 depicts the dose dependent extracellular matrix degradation of the enzymes mutanase and dextranase.
FIG. 4 depicts the dose dependent extracellular matrix degradation of the enzymes mutanase and dextranase in accordance with an embodiment of disclosed subject matter. While the catalytic function of iron oxide nanoparticles degrades the biofilm matrix more slowly than it substantially eradicates the bacteria, the rate of degradation can be enhanced with enzymes including mutanase and dextranase. A combination of 1.75 U mutanase and 8.75 U dextranase achieves maximal efficacy for extracellular matrix degradation.

## dextranase
  amount that achieves maximal efficacy for extracellular matrix degradation: 8.75 U

## mutanase
  amount that achieves maximal efficacy for extracellular matrix degradation: 1.75 U
